# Reference: US20240208969A1, “SUBSTITUTED FUSED BICYCLIC COMPOUNDS AS PARP INHIBITORS AND THE USE THEREOF” (IMPACT THERAPEUTICS (SHANGHAI), INC., priority 2021, published 2024)
# Test system: MDA-MB-436 cells
# Assay: Inhibition of proliferation of human breast cancer MDA-MB-436 cell line (CCK-8, 7 days)
# Type: cell-based
# Settings: Homo sapiens, 168 h, proliferation of MDA-MB-436, 7 days
# Description: The cells were cultured in complete medium (DMEM medium +10% FBS+Insulin+glutathione). When the confluence reached about 80%, cells were digested and gently dispensed from the bottom of the dish with a 1 mL pipette. Cell suspension was collected and centrifuged at 500 rpm for 3 min. The supernatant was discarded, and the cell pellet were re-suspended in complete medium. The cells were seeded into a culture dish at an appropriate proportion, and then cultured in a 5% CO2 incubator at 37° C. The assay was carried out when the cells were in optimum condition and the confluence was reached 80%. Cells were harvested in the logarithmic growth phase by using 1 mL pipette gently and then centrifugated at 500 rpm for 3 min. The cells were resuspended by using refresh medium after removing the supernatant and then the cells were counted. The cells were seeded at 3000/well in a 96 well plate and incubated at 37° C. 5% CO2 incubator overnight. In the second day, cells were treated with compound at 8 serially diluted dose with 1000×final concentration in 100% DMSO. The compound was prepared as below: 1000×dilution tested compound solution to 40×test compound solution by adding 5μL, 1000×compound solution to 120 μL Medium (25-fold dilution). The solution was mixed by oscillation. DMSO was used as the control.
# The medium was removed from the wells in the plate after the plate was taken out from incubator. Then, fresh medium of 195 μL/per well was added to the 96 well plate. 5μL/per well of 40×test compound solution was added into the 96 well plate. Finally, the plate was incubated for 7 days in a 37° C. 5% CO2 incubator. The medium containing compound was changed once on the fourth day. After 7 days, 20 μL of CCK-8 was added to each well and shake gently, then was cultured for 4 hours. The plate was shaken for 5 min after incubation, the absorbance values of 450 nm. and 650nm wavelengths were recorded respectively (OD=absorbance value of 450 nm−absorbance value of 650 nm) by using the multifunction readout instrument.
# Data were analyzed by software GraphPad Prism 6.0. The inhibitory activity of compounds on cell proliferation was plotted using cell survival rate against the compound concentration as coordinates. Cell survival rate %=(ODcompound−ODbackground)/(ODDMSO−ODbackground)×100. The IC50 value was fitted by the s-shaped dose response curve equation: Y=100/(1+10^(log C−log IC50)), and C was the compound concentration.
# Table 2 summarizes the inhibitory effect data (IC50) of the compounds on the proliferation of human breast cancer cells MDA-MB-436, wherein ++++ indicates 1<IC50≤10 nM; +++ indicates 10 nM<IC50≤100 nM; ++ indicates 100 nM<IC50≤1 μM; + indicates IC50>1 μM.
row,IC50 [nM],Compound
1,100 to 1000,"CCn1c(=O)[nH]c2cc(CN3CCN(c4ccc(C(=O)NC)nc4C(F)(F)F)CC3)ccc2c1=O [Example 23, 5-(4-((3-ethyl-2,4-dioxo-1,2,3,4-tetrahydroquinazolin-7-yl)methyl)piperazin-1-yl)-N-methyl-6-(trifluoromethyl)picolinamide]"
2,10 to 100,"CCn1c(=O)[nH]c2cc(CN3CCN(c4ccc(C(=O)NC)nc4C)CC3)ncc2c1=O [Example 81, 5-(4-((3-ethyl-2,4-dioxo-1,2,3,4-tetrahydropyrido[4,3-d]pyrimidin-7-yl)methyl)piperazin-1-yl)-N,6-dimethylpicolinamide]"
3,10 to 100,"CCn1c(=O)[nH]c2cc(CN3CCN(c4ccc(C(=O)NC)nc4C)CC3)cc(F)c2c1=O [Example 56, 5-(4-((3-ethyl-5-fluoro-2,4-dioxo-1,2,3,4-tetrahydroquinazolin-7-yl)methyl)piperazin-1-yl)-N,6-dimethylpicolinamide]"
4,> 1000,"CCn1c(=O)[nH]c2cc(CN3CCN(c4cnc(C(=O)NC)cc4C)CC3)ccc2c1=O [Example 50, 5-(4-((3-ethyl-2,4-dioxo-1,2,3,4-tetrahydroquinazolin-7-yl)methyl)piperazin-1-yl)-N,4-dimethylpicolinamide]"
5,> 1000,"CCn1c(=O)[nH]c2cc(CN3CCN(c4cnc(C(=O)NC)cn4)CC3)ccc2c1=O [Example 57, 5-(4-((3-ethyl-2,4-dioxo-1,2,3,4-tetrahydroquinazolin-7-yl)methyl)piperazin-1-yl)-N-methylpyrazine-2-carboxamide]"
6,> 1000,"CCn1c(=O)[nH]c2cc(CN3CCN(c4ccc(C(=O)N(C)C)nc4F)CC3)ccc2c1=O [Example 39, 5-(4-((3-ethyl-2,4-dioxo-1,2,3,4-tetrahydroquinazolin-7-yl)methyl)piperazin-1-yl)-6-fluoro-N,N-dimethylpicolinamide]"
7,> 1000,"CCn1c(=O)[nH]c2cc(CN3CCN(c4ncc(C(=O)NC)cc4C)CC3)ccc2c1=O [Example 79, 6-(4-((3-ethyl-2,4-dioxo-1,2,3,4-tetrahydroquinazolin-7-yl)methyl)piperazin-1-yl)-N,5-dimethylnicotinamide]"
8,> 1000,"CCn1c(=O)[nH]c2cc(CN3CCN(c4ccc(C(=O)NC)nc4C)CC3)c(C)cc2c1=O [Example 52, 5-(4-((3-ethyl-6-methyl-2,4-dioxo-1,2,3,4-tetrahydroquinazolin-7-yl)methyl)piperazin-1-yl)-N,6-dimethylpicolinamide]"
9,100 to 1000,"CNC(=O)c1ccc(N2CCN(Cc3ccc4c(=O)n(CCF)c(=O)[nH]c4c3)CC2)c(C)n1 [Example 20, 5-(4-((3-(2-fluoroethyl)-2,4-dioxo-1,2,3,4-tetrahydroquinazolin-7-yl)methyl)piperazin-1-yl)-N,6-dimethylpicolinamide]"

# Second part, the molecule before the results:
row,Compound,IC50 [nM]
1,"CCN1Cc2c(F)cc(CN3CCN(c4ccc(C(=O)NC)nc4Cl)CC3)cc2NC1=O [Example 120, 6-chloro-5-(4-((3-ethyl-5-fluoro-2-oxo-1,2,3,4-tetrahydroquinazolin-7-yl)methyl)piperazin-1-yl)-N-methylpicolinamide]",10 to 100
2,"CCn1c(=O)[nH]c2cc(CN3CCN(c4ccc5cn[nH]c5c4)CC3)ccc2c1=O [Example 111, 7-((4-(1H-indazol-6-yl)piperazin-1-yl)methyl)-3-ethylquinazoline-2,4(1H,3H)-dione]",> 1000
3,"CCn1c(=O)[nH]c2cc(CN3CCN(c4ccc(C(=O)NC5CC5)nc4Cl)CC3)cc(Cl)c2c1=O [Example 131, 6-chloro-5-(4-((5-chloro-3-ethyl-2,4-dioxo-1,2,3,4-tetrahydroquinazolin-7-yl)methyl)piperazin-1-yl)-N-cyclopropylpicolinamide]",1 to 10
4,"CCn1c(=O)[nH]c2cc(CN3CCN(c4ccc(C(=O)NC5CC5)nc4F)CC3)cc(F)c2c1=O [Example 141, N-cyclopropyl-5-(4-((3-ethyl-5-fluoro-2,4-dioxo-1,2,3,4-tetrahydroquinazolin-7-yl)methyl)piperazin-1-yl)-6-fluoropicolinamide]",1 to 10
5,"CNC(=O)c1ccc(N2CCN(Cc3ccc4c(=O)n(CC(F)(F)F)c(=O)[nH]c4c3)CC2)c(C)n1 [Example 87, 5-(4-((2,4-dioxo-3-(2,2,2-trifluoroethyl)-1,2,3,4-tetrahydroquinazolin-7-yl)methyl)piperazin-1-yl)-N,6-dimethylpicolinamide]",> 1000
6,"CCn1c(=O)[nH]c2cc(CN3CCN(c4ccc5c(c4)CCN(C)C5=O)CC3)ccc2c1=O [Example 36, 3-ethyl-7-((4-(2-methyl-1-oxo-1,2,3,4-tetrahydroisoquinolin-6-yl)piperazin-1-yl)methyl)quinazoline-2,4(1H,3H)-dione]",> 1000
7,"CCn1c(=O)[nH]c2cc(CN3CCN(c4ccc5cc[nH]c5c4)CC3)ccc2c1=O [Example 110, 7-((4-(1H-indol-6-yl)piperazin-1-yl)methyl)-3-ethylquinazoline-2,4(1H,3H)-dione]",> 1000
8,"CNC(=O)c1ccc(N2CCN(Cc3cnc4c(=O)n(C)c(=O)[nH]c4c3)CC2)cn1 [Example 2, 5-(4-((3-methyl-2,4-dioxo-1,2,3,4-tetrahydropyrido[3,2-d]pyrimidin-7-yl)methyl)piperazin-1-yl)-N-methylpicolinamide]",> 1000
9,"CCn1c(=O)[nH]c2cc(CN3CCN(c4ccc(C(=O)NC)nc4F)CC3)cnc2c1=O [Example 9, 5-(4-((3-ethyl-2,4-dioxo-1,2,3,4-tetrahydropyrido[3,2-d]pyrimidin-7-yl)methyl)piperazin-1-yl)-6-fluoro-N-methylpicolinamide]",100 to 1000
10,"CCNC(=O)c1ccc(N2CCN(Cc3cc(Cl)c4c(=O)n(CC)c(=O)[nH]c4c3)CC2)c(Cl)n1 [Example 126, 6-chloro-5-(4-((5-chloro-3-ethyl-2,4-dioxo-1,2,3,4-tetrahydroquinazolin-7-yl)methyl)piperazin-1-yl)-N-ethylpicolinamide]",1 to 10
11,"CCn1c(=O)[nH]c2cc(CN3CCN(c4ccc(C(=O)NC)nc4C)CC3)cc(Cl)c2c1=O [Example 59, 5-(4-((5-chloro-3-ethyl-2,4-dioxo-1,2,3,4-tetrahydroquinazolin-7-yl)methyl)piperazin-1-yl)-N,6-dimethylpicolinamide]",10 to 100
12,"CCn1c(=O)[nH]c2cc(-c3cc(F)cc(C(=O)Nc4ccc(C(=O)NC)nc4)c3)ccc2c1=O [Example 43, 5-(3-(3-ethyl-2,4-dioxo-1,2,3,4-tetrahydroquinazolin-7-yl)-5-fluorobenzamido)-N-methylpicolinamide]",> 1000
13,"CCNC(=O)c1ccc(N2CCN(Cc3ccc4c(=O)n(C)c(=O)[nH]c4c3)CC2)c(Cl)n1 [Example 100, 6-chloro-N-ethyl-5-(4-((3-methyl-2,4-dioxo-1,2,3,4-tetrahydroquinazolin-7-yl)methyl)piperazin-1-yl)picolinamide]",100 to 1000
14,"CCNC(=O)c1ccc(N2CCN(Cc3cnc4c(=O)n(CC)c(=O)[nH]c4c3)CC2)c(C)n1 [Example 103, N-ethyl-5-(4-((3-ethyl-2,4-dioxo-1,2,3,4-tetrahydropyrido[3,2-d]pyrimidin-7-yl)methyl)piperazin-1-yl)-6-methylpicolinamide]",10 to 100
15,"CCNC(=O)c1ccc(N2CCN(Cc3cc(F)c4c(c3)NC(=O)N(CC)C4)CC2)c(C)n1 [Example 121, N-ethyl-5-(4-((3-ethyl-5-fluoro-2-oxo-1,2,3,4-tetrahydroquinazolin-7-yl)methyl)piperazin-1-yl)-6-methylpicolinamide]",10 to 100
16,"CNC(=O)c1ccc(N2CCN(Cc3ccc4c(=O)n(C)c(=O)[nH]c4c3F)CC2)c(F)n1 [Example 138, 6-fluoro-5-(4-((8-fluoro-3-methyl-2,4-dioxo-1,2,3,4-tetrahydroquinazolin-7-yl)methyl)piperazin-1-yl)-N-methylpicolinamide]",10 to 100
17,"CCNC(=O)c1ccc(N2CCN(Cc3cnc4c(=O)n(CC)c(=O)[nH]c4c3)CC2)c(Cl)n1 [Example 102, 6-chloro-N-ethyl-5-(4-((3-ethyl-2,4-dioxo-1,2,3,4-tetrahydropyrido[3,2-d]pyrimidin-7-yl)methyl)piperazin-1-yl)picolinamide]",10 to 100
18,"CNC(=O)c1ccc(N2CCN(Cc3ccc4c(=O)n(C)c(=O)[nH]c4c3)CC2)c(Cl)n1 [Example 98, 6-chloro-N-methyl-5-(4-((3-methyl-2,4-dioxo-1,2,3,4-tetrahydroquinazolin-7-yl)methyl)piperazin-1-yl)picolinamide]",100 to 1000
